1 molecule from patent US20230338336A1, “METHODS OF TREATING CONDITIONS RELATED TO THE S1P1 RECEPTOR” (Arena Pharmaceuticals, Inc., priority 2020, published 2023) can be followed below.

Molecules are shown by their SMILES.

Series [1] in a line: Phase 2 dose-ranging study in UC patients and open-label extension. It counts as in vivo, human. The settings on record: UC patients. How it is done: (§1) Compound 1, or a pharmaceutically acceptable salt, solvate, or hydrate thereof, is an orally administered, selective, synthetic sphingosine 1-phosphate (S1P) receptor 1, 4, 5 modulator. […] Its safety and tolerability have been evaluated in Phase 1 studies with healthy adult subjects at single doses up to 5 mg and repeated doses up to 4 mg once daily (QD).

Series [2] can be described thus: Safety and tolerability in clinical studies (Phase 1, healthy adult subjects). The series is classed as in vivo, human. The conditions noted are these: approximately 281 adult subjects, various doses; single doses up to 5 mg, repeated doses up to 4 mg QD. How it is done: as §1
Series [3] concerns human full thickness scalp skin / hair follicles. The experiment in a line: Human full thickness scalp skin model, AA-like inflammatory environment, with and without IFNγ (ex vivo). It counts as cell-based. How it is done:
To evaluate the effects of Compound 1 on hair follicle physiology and pathology in an AA-like inflammatory environment, a human full thickness scalp skin model was used. Scalp biopsies from two healthy donors were cultured ex vivo and treated with tofacitinib (400 nM) and Compound 1 (10 nM, 100 nM, 1000 nM) in the presence and absence of IFNγ, a key pathological cytokine involved in AA development. 5 mm skin cubes with hair were acquired from a donor (Donor 1) and a donor (Donor 2). Ten groups were tested with one skin punch per group: 1. Vehicle (DMSO control) 2. Tofacitinib (400 nM), 3. 10 nM Compound 1, 4. 100 nM Compound 1 5. 1 μM Compound 1, 6. Vehicle (DMSO control)+100 IU IFNγ, 7. Tofacitinib (400 nM)+100 IU IFNγ, 8. 10 nM Compound 1+100 IU IFNγ, 9. 100 nM Compound 1+100 IU IFNγ 10. 1 μM Compound 1+100 IU IFNγ. On Day 0, isolation of 10×6mm punches with hair was performed. On Days 1, 3, and 5 the medium was changed and treatment with groups 1-10 occurred. Days 2 and 4 were rest days. On Day 6, the culture was closed and embedded in OCT Compound for further microscopic analysis.

The subject of series [4] is microdissected human scalp hair follicles (HF). Briefly: Hair follicle organ culture model, non-inflammatory condition (ex vivo). The series is classed as cell-based. The method, then: A hair follicle organ culture model was used to analyze the direct effects of Compound 1 on HF physiology in a non-inflammatory condition. Human full thickness scalp skin from four healthy donors was cultured ex vivo and treated in four groups with 11 HF's per groups: 1. vehicle (DMSO control), 2. 10 nM Compound 1, 3. 100 nM Compound 1, 4. 1 μM Compound 1. Before treatment began, […] full length microdissected HF's were isolated, pictures and length measurements were taken of the HF's, and the HF's were cultured in WCM. On Days 1, 3, and 5 pictures of HF elongation were taken, the medium was changed, and treatment in groups 1-4 occurred. Days 2 and 4 were rest days. Additionally, on Day 2 three HF's per group were frozen for RNAseq twenty-four hours after the previous day's treatment. On Day 6, pictures were taken of the HF elongation, the culture was closed, and 8 HF's per group were embedded in optimal cutting temperature compound (OCT compound) for further microscopic immunohistological analysis.

In the case of `O=C(O)C[C@H]1CCc2c1[nH]c1ccc(OCc3ccc(C4CCCC4)c(C(F)(F)F)c3)cc21` [Compound 1, (R)-2-(7-(4-cyclopentyl-3-(trifluoromethyl)benzyloxy)-1,2,3,4-tetrahydrocyclopenta[b]indol-3-yl)acetic acid], the “Endoscopic and symptomatic improvements versus placebo” value in series [1] (2 mg QD for 12 weeks) is “clinically meaningful and statistically significant”. Moreover, the “Duration of beneficial effects in open-label extension study” value in series [1] (up to 46 weeks) was “Sustained beneficial effects”. In series [2], the Safety and tolerability entry was “safe and well-tolerated”. Besides, in series [3] (+100 IU IFNγ (FIG. 11)), the “IFNγ-mediated MHC-I up-regulation in the dermal cup of the hair follicle” value is reported as “prevented”. Besides, the “Hair cycle staging / hair cycle score (anagen)” value in series [3] (Donor 1, without IFNγ (FIG. 10)) was “tendentially prolonged anagen”. In series [3] (Donor 2 (FIG. 12)), the “Increase of CD8-S1P1+ cells showing lymphocytic morphology” value was “prevented” and the “Increase of perifollicular CD8+ cells showing lymphocytic morphology” value is “prevented”. Besides, in series [4] (10 nM and 100 nM, 6-day HF organ culture, vs vehicle (FIG. 7)), the “Hair cycle staging / hair cycle score (anagen phase)” value is given as “tendentially prolonged the anagen phase”. Further, the “MICA expression (stress signal)” value in series [4] (100 nM, anagen and catagen HFs combined and anagen HFs alone (FIG. 9)) was “significantly reduced”. Besides, the “RNAseq: genes involved in hair keratinization” value in series [4] (10 nm and 100 nm groups, HFs frozen 24 h after treatment) is recorded as “significant up-regulation”. Also, in series [4] (anagen and catagen HFs combined and anagen HFs alone (FIGS. 8a, 8b)), the “MHC class I (MHC-I) expression in dermal cup, germinative hair matrix, outer root sheath” value is reported as “no change”.
